Assay results as given in patent US6770748B2, “Bicyclonucleoside and oligonucleotide analogue” (priority 1997, dated 2004).

Assays:
[1] = tested on: complementary RNA 3′-r(CGCAAAAAACGA) (SEQ ID NO:12); assay: Melting temperature (Tm) of annealing products of antisense oligonucleotide analogues with complementary RNA sense strand; assay type: binding; settings: for Tm for complementary RNA: 100 mM NaCl, 10 mM sodium phosphate buffer (pH 7.2), 4 μM antisense strand, 4 μM sense strand, UV 260 nm; for ΔTm/mod. for complementary RNA: change of Tm per modified residue versus natural strand
Description: (§1) The melting temperatures (Tm's) of annealing products between antisense strands, which were the various oligonucleotide analogues synthesized in Example 2, and natural DNA- or RNA-based sense strands were measured to investigate the hybridizing ability of the oligonucleotide analogues of the present invention for complementary DNA and RNA.
(§2) Each sample solution (500 μL) with end concentrations of 100 mM NaCl, 10 mM sodium phosphate buffer (pH 7.2), 4 μM antisense strand, and 4 μM sense strand, respectively, was bathed in boiling water, and slowly cooled to room temperature over the course of 10 hours. The sample solution was gradually cooled to 5° C., kept at 5° C. for a further period of 20 minutes, and then started to be measured, with a stream of nitrogen being passed through a cell chamber of a spectrophotometer (UV-2100PC, Shimadzu) for prevention of moisture condensation. The sample temperature was raised at a rate of 0.2° C./minute until 90° C., and the ultraviolet absorption at 260 nm was measured at intervals of 0.1° C. To prevent changes in the sample concentration with increases in the temperature, the cell was provided with a closure, and a drop of a mineral oil was applied onto the surface of the sample solution during measurement.

[2] = tested on: complementary DNA 3′-CGCAAAAAACGA-5′ (SEQ ID NO:12); assay: Melting temperature (Tm) of annealing products of antisense oligonucleotide analogues with complementary DNA sense strand; assay type: binding; settings: for Tm for complementary DNA: 100 mM NaCl, 10 mM sodium phosphate buffer (pH 7.2), 4 μM antisense strand, 4 μM sense strand, UV 260 nm; for ΔTm/mod. for complementary DNA: change of Tm per modified residue versus natural strand
Description: as §1, §2

[3] = molecular target: snake venom phosphodiesterase (Crotalus adamanteus, UniProt J3SEZ3)
[4] = total increase versus natural strand

Chain of snake venom phosphodiesterase (J3SEZ3 24-851 limits assumed): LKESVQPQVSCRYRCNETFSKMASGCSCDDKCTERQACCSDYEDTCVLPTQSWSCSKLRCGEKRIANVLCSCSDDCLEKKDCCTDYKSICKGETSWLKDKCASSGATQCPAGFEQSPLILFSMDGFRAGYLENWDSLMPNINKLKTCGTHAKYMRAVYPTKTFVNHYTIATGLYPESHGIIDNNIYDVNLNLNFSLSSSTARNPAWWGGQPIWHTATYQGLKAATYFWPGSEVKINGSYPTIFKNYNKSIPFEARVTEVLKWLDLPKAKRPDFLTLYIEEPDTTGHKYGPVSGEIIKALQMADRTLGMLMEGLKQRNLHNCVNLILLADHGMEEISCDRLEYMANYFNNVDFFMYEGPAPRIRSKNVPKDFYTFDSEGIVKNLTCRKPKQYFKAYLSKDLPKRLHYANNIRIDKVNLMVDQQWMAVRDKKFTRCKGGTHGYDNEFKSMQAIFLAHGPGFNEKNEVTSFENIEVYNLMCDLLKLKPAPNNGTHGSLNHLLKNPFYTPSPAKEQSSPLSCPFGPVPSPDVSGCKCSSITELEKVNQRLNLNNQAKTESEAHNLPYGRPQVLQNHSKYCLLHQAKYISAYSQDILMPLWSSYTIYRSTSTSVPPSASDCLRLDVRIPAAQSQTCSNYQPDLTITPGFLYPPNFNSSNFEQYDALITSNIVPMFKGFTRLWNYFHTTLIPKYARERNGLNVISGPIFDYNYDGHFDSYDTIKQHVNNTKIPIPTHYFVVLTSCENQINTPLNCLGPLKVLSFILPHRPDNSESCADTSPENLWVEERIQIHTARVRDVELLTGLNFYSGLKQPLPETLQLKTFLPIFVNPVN

| Compound | Tm for complementary RNA [1] | ΔTm/mod. for complementary RNA [1] | Tm for complementary DNA [2] | ΔTm/mod. for complementary DNA [2] | also measured |
| --- | --- | --- | --- | --- | --- |
| 5′-GCGTTTTTXGCT-3′ [Compound T5X] | 51 °C | +6 °C | 52 °C | +4 °C | – |
| 5′-GCGTTXXTTGCT-3′ [Compound T2X2T2] | 53 °C | +4 °C | 49 °C | +1 °C | – |
| 5′-GCGTTXTTTGCT-3′ [Compound T2XT3] | 49 °C | +4 °C | 49 °C | +2 °C | – |
| 5′-GCGTTTXTTGCT-3′ [Compound T3XT2] | 50 °C | +5 °C | 49 °C | +2 °C | – |
| 5′-GCGTTTTXXGCT-3′ [Compound T4X2] | 55 °C | +5 °C | 54 °C | +3.5 °C | – |
| 5′-GTTTTTTTTTTTC-3′ [natural type] | – | – | – | – | time until ultraviolet absorption reached a plateau after initiation of the enzyme reaction [3]: about 30 minutes; t½ (half-life) ([3]; pH 8.6): 4.33 min |
| 5′-GCGXTTTTTGCT-3′ [XT6] | 49 °C | +4 °C | 50 °C | +3 °C | – |
| CC(C)C(=O)Nc1nc2c(ncn2[C@@H]2O[C@@]3(CO[Si](c4ccccc4)(c4ccccc4)C(C)(C)C)CO[C@@H]2[C@@H]3OCc2ccccc2)c(=O)[nH]1 | – | – | – | – | melting point: 99 to 100 °C |
| 5′-GCGTTTTTTTGCT-3′ [natural, reference compound] | 45 °C | – | 47 °C | – | – |
| 5′-GCGXXXXXXGCT-3′ [Compound X6] | 71 °C | +4.3 °C | 58 °C | +1.8 °C | increase in Tm per modified residue, complementary RNA ([1]; per modified residue versus natural strand): 4 degrees; increase in Tm over the natural strand, complementary RNA [1, 4]: more than 25 degrees; rise in Tm as compared with the natural strand, complementary DNA oligomer [2, 4]: 11 degrees |
| 5′-GCGXXTTTTGCT-3′ [Compound X2T4] | 53 °C | +4 °C | 51 °C | +2 °C | – |
| Cc1cn([C@@H]2O[C@@]3(CO)CO[C@@H]2[C@@H]3O)c(=O)[nH]c1=O [Compound 39a, 2′-O,4′-C-methylene-5-methyluridine] | – | – | – | – | melting point: 194 to 195 °C |
| CC(C)(C)[Si](OC[C@@]12CO[C@@H]([C@H](n3cnc4c(NCc5ccccc5)ncnc43)O1)[C@@H]2OCc1ccccc1)(c1ccccc1)c1ccccc1 | – | – | – | – | melting point: 80 to 81 °C |
